Test system: Pythium ultimum, pathogen of cucumber damping-off
Test: Cucumber damping-off seed treatment test (Test Example 1)
Assay type: in vivo
Conditions: cucumber seeds, 18° C., 13 days
Text: An acetone solution of ethaboxam and an acetone solution of clothianidin were mixed to prepare mixed liquids containing ethaboxam and clothianidin in predetermined concentration. These mixed liquids were adhered on the surface of cucumber (Sagamihanjiro) seeds and allowed to stand still overnight. A plastic pot was filled with sandy soil and the seeds were disseminated on it. Then the seeds were covered with sandy soil which had been mixed with a bran medium on which Pythium ultimum, pathogen of cucumber damping-off, had been allowed to grow. They were irrigated and allowed to grow at 18° C. under humidity for 13 days, and thereafter control effect was checked.
As a comparison, acetone solutions containing ethaboxam in the predetermined concentration and acetone solutions containing clothianidin in the predetermined concentration were prepared and subjected to similar tests.
The incidence of disease was calculated by Equation 1 and the control value was calculated by Equation 2 based on the incidence of disease.
A: Incidence of disease of plant in untreated area
B: Incidence of disease of plant in treated area
E=X+Y−(X×Y)/100 “Equation 2”

Structure (SMILES) | Actual control value (ethaboxam 5 g ai/100 kg-seed alone) | Actual control value (ethaboxam 10 g ai/100 kg-seed alone) | Actual control value (clothianidin 150 g ai/100 kg-seed alone) | Actual control value (clothianidin 300 g ai/100 kg-seed alone)
CCNc1nc(CC)c(C(=O)NC(C#N)c2cccs2)s1 (stereo not shown) [Ethaboxam, ethaboxam] | 60% | 73% |  | 
CN/C(=N\[N+](=O)[O-])NCc1cnc(Cl)s1 [clothianidin] |  |  | 0.0% | 0.0%
